What is called Ki is a dissociation constant, usually derived from enzyme kinetics or from competition with a known ligand.

Our source for the Ki values is patent publication US10028942B2 (priority 2013, dated 2018).

SMILES strings stand for the structures.

The target in this experiment is T1, DLK (Homo sapiens, UniProt Q12852).
T1 sequence (Q12852 1-520): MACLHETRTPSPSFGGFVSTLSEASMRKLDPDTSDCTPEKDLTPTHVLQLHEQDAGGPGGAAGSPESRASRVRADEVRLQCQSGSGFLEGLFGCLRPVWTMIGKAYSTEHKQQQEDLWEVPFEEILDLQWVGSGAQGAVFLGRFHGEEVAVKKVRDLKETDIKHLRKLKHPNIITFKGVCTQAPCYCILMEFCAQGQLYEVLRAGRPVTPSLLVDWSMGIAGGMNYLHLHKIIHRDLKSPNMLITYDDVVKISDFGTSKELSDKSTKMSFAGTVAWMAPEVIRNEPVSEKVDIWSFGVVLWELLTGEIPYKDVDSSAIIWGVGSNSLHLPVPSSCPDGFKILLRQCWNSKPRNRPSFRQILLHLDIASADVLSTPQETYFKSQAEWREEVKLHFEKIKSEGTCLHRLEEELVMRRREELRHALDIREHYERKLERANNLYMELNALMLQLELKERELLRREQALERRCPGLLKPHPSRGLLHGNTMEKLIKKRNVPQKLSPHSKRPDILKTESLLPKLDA
As to conditions: read-out: DLK (Ki) μM; TR-FRET; 5 nM GST-tagged DLK (catalytic domain aa 1-520), 40 nM HIS-MKK4 K131M substrate, 30 μM ATP, 60 minutes. (In general: In TR-FRET formats the signal depends on donor and acceptor labels being close together.)

For `CC(=O)N1CCC(c2cc(-c3cnc4[nH]cc(C)c4c3)nn2C)CC1` [Compound 47, 1-(4-(1-methyl-3-(3-methyl-1H-pyrro-lo[2,3-b]pyridin-5-yl)-1H-pyrazol-5-yl)piperidin-1-yl)ethanone], the Ki was 0.047 µM. For the molecule `CC(=O)N1CCC(c2cc(-c3cnc4[nH]cc(C)c4c3)nn2C(C)C)CC1` [Compound 49, 1-(4-(1-isopropyl-3-(3-methyl-1H-pyrrolo[2,3-b]pyridin-5-yl)-1H-pyrazol-5-yl)piperidin-1-yl)ethanone], the Ki was found to be 0.019 µM. In the case of `CC(=O)N1CCC(c2cc(-c3cnc4[nH]cc(C(F)(F)F)c4c3)nn2C(C)C)CC1` [Compound 50, 1-(4-(1-isopropyl-3-(3-(trifluorometh-yl)-1H-pyrrolo[2,3-b]pyridin-5-yl)-1H-pyrazol-5-yl)piperidin-1-yl)etha-none], the Ki was 0.0037 µM.

As for `CC(C)n1nc(-c2cnc3[nH]cc(C(F)(F)F)c3c2)cc1C1CCN(CC#N)CC1` [Compound 51, 2-(4-(1-isopropyl-3-(3-(trifluorometh-yl)-1H-pyrrolo[2,3-b]pyridin-5-yl)-1H-pyrazol-5-yl)piperidin-1-yl)aceto-nitrile], the Ki was found to be 0.00017 µM.

For the molecule `CC(C)n1nc(-c2cnc(N)c(C(F)(F)F)c2)cc1C1CCN(CC#N)CC1` [Compound 52, 2-(4-(3-(6-amino-5-(trifluoromethyl)pyridin-3-yl)-1-isopropyl-1H-pyrazol-5-yl)piperidin-1-yl)acetonitrile], the inhibition constant Ki amounted to 0.056 µM. Next, `CC(C)n1nc(-c2cnc3[nH]cc(C(F)(F)F)c3c2)cc1C1CN(C2COC2)C1` [Compound 54, 5-(1-isopropyl-5-(1-(oxetan-3-yl)aze-tidin-3-yl)-1H-pyrazol-3-yl)-3-(trifluoro-methyl)-1H-pyrrolo[2,3-b]pyridine]: 0.00048 µM. As to `FC(F)(F)c1c[nH]c2ncc(-c3cc(C4CN(C5COC5)C4)n(C4CCOC4)n3)cc12` (stereo not shown) [Compound 55, 5-(5-(1-(oxetan-3-yl)azetidin-3-yl)-1-(tetrahydrofuran-3-yl)-1H-pyrazol-3-yl)-3-(trifluoromethyl)-1H-pyrrolo[2,3-b]pyridine], the Ki turned out to be 0.019 µM. On to `FC1(F)CCC(n2nc(-c3cnc4[nH]cc(C(F)(F)F)c4c3)cc2C2CN(C3COC3)C2)C1` (stereo not shown) [Compound 56, 5-(1-(3,3-difluorocyclopentyl)-5-(1-(oxetan-3-yl)azetidin-3-yl)-1H-pyrazol-3-yl)-3-(trifluoromethyl)-1H-pyrrolo[2,3-b]pyridine], for which the inhibition constant (Ki) turned out to be 0.013 µM.

For the molecule `CC(C)n1nc(-c2cnc3[nH]cc(F)c3c2)cc1C1CN(C2COC2)C1` [Compound 58, 3-fluoro-5-(1-isopropyl-5-(1-(oxetan-3-yl)azetidin-3-yl)-1H-pyrazol-3-yl)-1H-pyrrolo[2,3-b]pyridine], the inhibition constant (Ki) was determined as 0.64 µM. Consider `CC(C)n1nc(-c2cnc3[nH]cc(C#N)c3c2)cc1C1CN(C2COC2)C1` [Compound 59, 5-(1-isopropyl-5-(1-(oxetan-3-yl)aze-tidin-3-yl)-1H-pyrazol-3-yl)-1H-pyrro-lo[2,3-b]pyridine-3-carbonitrile], for which the Ki came to 0.31 µM.

For the molecule `CC(C)n1nc(-c2cnc(N)c(C(F)(F)F)c2)cc1C1CN(C2COC2)C1` [Compound 60, 5-(1-isopropyl-5-(1-(oxetan-3-yl)azetidin-3-yl)-1H-pyrazol-3-yl)-3-(trifluoromethyl)pyridin-2-amine], the Ki stood at 0.027 µM. In the case of `Cc1c[nH]c2ncc(-c3cc(C4CCN(C5COC5)C4)n(C)n3)cc12` (stereo not shown) [Compound 63, 3-methyl-5-(1-methyl-5-(1-(oxetan-3-yl)pyrrolidin-3-yl)-1H-pyrazol-3-yl)-1H-pyrrolo[2,3-b]pyridine], the Ki was 0.034 µM. Regarding `Cc1c[nH]c2ncc(-c3cc(C4CCN(C5COC5)C4)n(C(C)C)n3)cc12` (stereo not shown) [Compound 64, 5-(1-isopropyl-5-(1-(oxetan-3-yl)pyr-rolidin-3-yl)-1H-pyrazol-3-yl)-3-meth-yl-1H-pyrrolo[2,3-b]pyridine], the Ki was 0.0045 µM. Take `CC(C)n1nc(-c2cnc3[nH]cc(F)c3c2)cc1C1CCN(C2COC2)C1` (stereo not shown) [Compound 66, 3-fluoro-5-(1-isopropyl-5-(1-(oxetan-3-yl)pyrrolidin-3-yl)-1H-pyrazol-3-yl)-1H-pyrrolo[2,3-b]pyridine]: the Ki came to 0.11 µM. As to `CC(C)n1nc(-c2cnc(N)c(C(F)(F)F)c2)cc1C1CCN(C2COC2)C1` (stereo not shown) [Compound 67, 5-(1-isopropyl-5-(1-(oxetan-3-yl)pyr-rolidin-3-yl)-1H-pyrazol-3-yl)-3-(tri-fluoromethyl)pyridin-2-amine], the Ki came out at 0.03 µM. Under `Cc1c[nH]c2ncc(-c3cc(C4CCN(C5COC5)CC4)n(C(C)C)n3)cc12` [Compound 69, 5-(1-isopropyl-5-(1-(oxetan-3-yl)pipe-ridin-4-yl)-1H-pyrazol-3-yl)-3-meth-yl-1H-pyrrolo[2,3-b]pyridine] stands 0.0037 µM; under `CC(C)n1nc(-c2cnc3[nH]cc(C(F)(F)F)c3c2)cc1C1CCN(C2COC2)CC1` [Compound 70, 5-(1-isopropyl-5-(1-(oxetan-3-yl)pipe-ridin-4-yl)-1H-pyrazol-3-yl)-3-(tri-fluoromethyl)-1H-pyrrolo[2,3-b]pyri-dine], 0.0023 µM.

`Nc1ncc(-c2cc(C3CCN(C4COC4)CC3)n(C3CCCC3)n2)cc1Cl` [Compound 71, 3-chloro-5-(1-cyclopentyl-5-(1-(oxetan-3-yl)piperidin-4-yl)-1H-pyrazol-3-yl)pyridin-2-amine]: the Ki stood at 0.27 µM.

Take `CC(C)n1nc(-c2cnc3[nH]cc(Cl)c3c2)cc1C1CCN(C2COC2)CC1` [Compound 72, 3-chloro-5-(1-isopropyl-5-(1-(oxetan-3-yl)piperidin-4-yl)-1H-pyrazol-3-yl)-1H-pyrrolo[2,3-b]pyridine]: the inhibition constant Ki was determined as 0.015 µM. With `CC(C)n1nc(-c2cnc3[nH]cc(F)c3c2)cc1C1CCN(C2COC2)CC1` [Compound 75, 3-fluoro-5-(1-isopropyl-5-(1-(oxetan-3-yl)piperidin-4-yl)-1H-pyrazol-3-yl)-1H-pyrrolo[2,3-b]pyridine], the Ki was 0.096 µM.

Consider `CC(C)n1nc(-c2cnc(N)c(C(F)(F)F)c2)cc1C1CCN(C2COC2)CC1` [Compound 76, 5-(1-isopropyl-5-(1-(oxetan-3-yl)piperidin-4-yl)-1H-pyrazol-3-yl)-3-(trifluoromethyl)pyridin-2-amine], for which the Ki was 0.15 µM. As to `CC(C)n1nc(-c2cnc3[nH]cc(C#N)c3c2)cc1C1CCN(C2COC2)CC1` [Compound 77, 5-(1-isopropyl-5-(1-(oxetan-3-yl)pipe-ridin-4-yl)-1H-pyrazol-3-yl)-1H-pyrro-lo[2,3-b]pyridine-3-carbonitrile], the Ki worked out at 0.12 µM.

As to `Nc1ncc(-c2cc(C3CCN(C4COC4)CC3)n(C3CCCC3)n2)cc1C(F)(F)F` [Compound 81, 5-(1-cyclopentyl-5-(1-(oxetan-3-yl)piperidin-4-yl)-1H-pyrazol-3-yl)-3-(trifluoromethyl)pyridin-2-amine], the Ki was determined as 0.084 µM. For `CCOc1cc(-c2cc(C3CCN(C4COC4)CC3)n(C(C)C)n2)cnc1N` [Compound 83, 3-ethoxy-5-(1-isopropyl-5-(1-(oxetan-3-yl)piperidin-4-yl)-1H-pyrazol-3-yl)pyridin-2-amine], the Ki stood at 0.39 µM. `CC(C)Oc1cc(-c2cc(C3CCN(C4COC4)CC3)n(C(C)C)n2)cnc1N` [Compound 84, 3-isopropoxy-5-(1-isopropyl-5-(1-(oxe-tan-3-yl)piperidin-4-yl)-1H-pyrazol-3-yl)pyridin-2-amine]: the Ki amounted to 0.26 µM. In the case of `CCOc1cc(-c2cc(C3CCN(C4COC4)CC3)n(C3CCC(F)(F)C3)n2)cnc1N` (stereo not shown) [Compound 85, 5-(1-(3,3-difluorocyclopentyl)-5-(1-(oxetan-3-yl)piperidin-4-yl)-1H-pyra-zol-3-yl)-3-ethoxypyridin-2-amine], the inhibition constant Ki stood at 0.99 µM. In the case of `CC(C)Oc1cc(-c2cc(C3CCN(C4COC4)CC3)n(C3CCC(F)(F)C3)n2)cnc1N` (stereo not shown) [Compound 86, 5-(1-(3,3-difluorocyclopentyl)-5-(1-(oxetan-3-yl)piperidin-4-yl)-1H-pyra-zol-3-yl)-3-isopropoxypyridin-2-amine], the Ki came out at 0.91 µM. Turning to `Nc1ncc(-c2cc(C3CCN(C4COC4)CC3)n(C3CCC(F)(F)C3)n2)cc1OCC1CC1` (stereo not shown) [Compound 87, 3-(cyclopropylmethoxy)-5-(1-(3,3-di-fluorocyclopentyl)-5-(1-(oxetan-3-yl)piperidin-4-yl)-1H-pyrazol-3-yl)pyri-din-2-amine], the Ki was 0.64 µM. As to `COc1cc(-c2cc(C3CCN(C4COC4)CC3)n(C3CCCC3)n2)cnc1N` [Compound 88, 5-(1-cyclopentyl-5-(1-(oxetan-3-yl)piperidin-4-yl)-1H-pyrazol-3-yl)-3-methoxypyridin-2-amine], the Ki came out at 0.26 µM. Take `COc1cc(-c2cc(C3CCN(C4COC4)CC3)n(C(C)C)n2)cnc1N` [Compound 89, 5-(1-isopropyl-5-(1-(oxetan-3-yl)pipe-ridin-4-yl)-1H-pyrazol-3-yl)-3-meth-oxypyridin-2-amine]: the Ki came out at 0.14 µM. For `CC(C)Oc1cc(-c2cc(C3CCN(C4COC4)CC3)n(C3CCCC3)n2)cnc1N` [Compound 90, 5-(1-cyclopentyl-5-(1-(oxetan-3-yl)piperidin-4-yl)-1H-pyrazol-3-yl)-3-iso-propoxypyridin-2-amine], the Ki is 0.12 µM.
